In patent US20210355104A1, “ADENOSINE RECEPTOR BINDING COMPOUNDS” (Nikang Therapeuticsm Inc., priority 2018, published 2021):
Values joined by “and” are separate entries in the source; they are usually repeats but may differ in a detail not shown here. Equal entries are not always repeated. Where two headings read alike, the source gives them in different places.

How the values were obtained:
Adenosine A2A receptor = Adenosine A2A receptor (Homo sapiens, UniProt P29274); assay: cAMP assay in 293A cells stably expressing the adenosine A2A receptor (CGS21680 stimulation, HTRF); assay type: cell-based; parameters: expressed in transfected cells; host or cells: 293A cells (Invitrogen, Cat# R705-07) infected with A2A-expressing lentivirus (custom packaged by Biosettia), puromycin selected; details: 293A-A2AR cells, 0.1% BSA, 1 uM CGS; read-out: cAMP (nM) 0.1% BSA, 1 uM CGS
Sequence of Adenosine A2A receptor (P29274 whole entry): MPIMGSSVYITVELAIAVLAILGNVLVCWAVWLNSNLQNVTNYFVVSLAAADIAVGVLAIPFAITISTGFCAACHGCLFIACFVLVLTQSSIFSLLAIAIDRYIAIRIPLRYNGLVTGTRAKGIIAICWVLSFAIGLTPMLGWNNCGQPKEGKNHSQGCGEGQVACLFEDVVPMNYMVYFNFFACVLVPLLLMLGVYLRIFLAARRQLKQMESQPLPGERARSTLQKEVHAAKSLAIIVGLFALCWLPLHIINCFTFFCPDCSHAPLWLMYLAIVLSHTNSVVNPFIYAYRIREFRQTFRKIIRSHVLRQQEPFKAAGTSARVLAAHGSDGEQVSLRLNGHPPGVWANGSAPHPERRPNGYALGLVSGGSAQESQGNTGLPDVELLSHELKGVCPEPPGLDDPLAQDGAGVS

[1] = system: p-CREB (phosphorylated cAMP response-element binding protein) in human whole blood; assay: p-CREB assay in human whole blood by flow cytometry (NECA stimulation, CD4 staining); assay type: cell-based
Experimental: Assay protocol for p-CREB (phosphorylated cAMP response-element binding protein) in human whole blood by flow cytometry
Fresh human whole blood (Biological Specialty Corporation) was added at 100 ul per wellinto a 96-well plate and treated with test compounds (Serial dilutions of 1:3 with starting concentration at 30 uM, 11 concentrations total, in the presence of adenosine deaminase) for one hour at room temperature on a plate shaker. Then 10 ul of 10× NECA (50 uM stock in PBS) and 10 ul of 10 × Rolipram (50 uM stock in PBS) were added, with designated wells for unstimulated (Rolipram+DMSO) and stimulated (Rolipram+NECA+DMSO) conditions. The plates were mixed well and incubated at room temperature for 30 min on a plate shaker. 1× lyse/Fix buffer (5× stock, BD #558049) was warmed to 37° in a water bath. 1200 ul of pre-warmed 1× lyse/Fix buffer was then added to the plate, which was then sealed and mixed by inverting the plate a few times. The plate was then incubated for 30 min at 37° in a water bath. After incubation, the plate was centrifuged at 1600 rpm for 5 min and the supernatant was decanted, then 1200 ul PBS was added and the plate was mixed by inverting a few times followed by centrifuging at 1600 rpm for 5 min and again decanting the supernatant. Then, 200 ul FIX PERM buffer II (BD #558052) was added and the plate was mixed well, then kept on ice for 45 min After spinning the plate at 1600 rpm for 5 min the supernatant was again decanted. Then was added 200 ul staining buffer (BD #554657), and the plate was mixed well and spun at 1600 rpm for 5 min, then the supernatant was again decanted. 200 ul staining buffer was added, the plate was mixed well and the plate was sealed at this step for storage at 4° overnight or until staining. Before staining, the plate was spun at 1600 rpm for 5 min and the supernatant was again decanted. Antibody mix in staining buffer was prepared (75 ul/well, 1:50 dilution for p-CREB antibody from Cell Signaling Tech #14001S, 1:200 dilution for CD4 antibody from BD #566320) and the cells were resuspended in the above antibody mix solution. After mixing well, the plate was incubated (shielded from light) at room temperature for two hours on a plate shaker. It was then spun at 1600 rpm for 5 min and the supernatant was decanted. 200 ul staining buffer was then added to wash cells, and the plate was then mixed by shaking or pipetting. The wash step was repeated at least one more time, and after the final wash, cells were resusptended in 200 ul staining buffer in U bottom plate for flow cytometry analysis.

IC50 (Adenosine A2A receptor) | IC50 ([1]; Homo sapiens) | IC50 [1] | Compound
278 nM and 228 nM | 521 nM |  | Cc1cc(-c2c(OCc3ccnc(OCCO)n3)nc(N)nc2-c2ccc(F)cc2)cc(C(F)F)n1 [Example 297, 2-((4-(((2-amino-5-(2-(difluoromethyl)-6-methylpyridin-4-yl)-6-(4-fluorophenyl)pyrimidin-4-yl)oxy)methyl)pyrimidin-2-yl)oxy)ethan-1-ol]
196 nM | 61.7 nM |  | Cc1cc(-c2c(OCc3cccc(OCCO)n3)nc(N)nc2-c2ccc(F)cc2)cc(C(F)F)n1 [Example 305]
26 nM and 23 nM | 6.9 nM |  | Cc1cc(-c2c(OCc3nccn3C(F)F)nc(N)nc2-c2ccc(F)cc2)cc(C(F)F)n1 [Example 306, 4-((1-(difluoromethyl)-1H-imidazol-2-yl)methoxy)-5-(2-(difluoromethyl)-6-methylpyridin-4-yl)-6-(4-fluorophenyl)pyrimidin-2-amine]
20 nM and 64 nM | 71.5 nM |  | Cc1cc(-c2c(OCCc3ccccn3)nc(N)nc2-c2ccc(F)cc2)cc(C(F)F)n1 [Example 313, 5-(2-(difluoromethyl)-6-methylpyridin-4-yl)-4-(4-fluorophenyl)-6-(2-(pyridin-2-yl)ethoxy)pyrimidin-2-amine]
0.4 nM and 1 nM | 9.8 nM |  | Cc1cc(-c2c(OCc3nc4ccccc4n3C)nc(N)nc2-c2ccc(F)cc2)cc(C(F)F)n1 [Example 314, 5-(2-(difluoromethyl)-6-methylpyridin-4-yl)-4-(4-fluorophenyl)-6-((1-methyl-1H-benzo[d]imidazol-2-yl)methoxy)pyrimidin-2-amine]
1.8 nM and 15 nM | 24.8 nM |  | CCn1c(COc2nc(N)nc(-c3ccc(F)cc3)c2-c2cc(C)nc(C(F)F)c2)nc2ccccc21 [Example 315, 5-(2-(difluoromethyl)-6-methylpyridin-4-yl)-4-((1-ethyl-1H-benzo[d]imidazol-2-yl)methoxy)-6-(4-fluorophenyl)pyrimidin-2-amine]
13 nM and 26 nM and 8.7 nM | 141 nM |  | Cc1cc(-c2c(OCCN(C)c3cccc(C(C)(C)C#N)n3)nc(N)nc2-c2ccc(F)cc2)cc(C(F)F)n1 [Example 320]
90 nM and 144 nM and 84 nM | 57.1 nM |  | Cc1cc(-c2c(OCc3cccc(C4CC4)n3)nc(N)nc2-c2ccc(F)cc2)cc(C(F)F)n1 [Example 326, 4-((6-cyclopropylpyridin-2-yl)methoxy)-5-(2-(difluoromethyl)-6-methylpyridin-4-yl)-6-(4-fluorophenyl)pyrimidin-2-amine]
87 nM and 249 nM and 153 nM | 128 nM |  | CCn1c(COc2nc(N)nc(-c3ccc(F)cc3)c2-c2cc(C)nc(C(F)F)c2)nc2cccnc21 [Example 329, 5-(2-(difluoromethyl)-6-methylpyridin-4-yl)-4-((3-ethyl-3H-imidazo[4,5-b]pyridin-2-yl)methoxy)-6-(4-fluorophenyl)pyrimidin-2-amine]
561 nM and 795 nM and 230 nM | 166 nM |  | Cc1cc(-c2c(OCCN(C)c3cccc(C(C)(C)C(=O)O)n3)nc(N)nc2-c2ccc(F)cc2)cc(C(F)F)n1 [Example 339, 2-(6-((2-((2-amino-5-(2-(difluoromethyl)-6-methylpyridin-4-yl)-6-(4-fluorophenyl)pyrimidin-4-yl)oxy)ethyl)(methyl)amino)pyridin-2-yl)-2-methylpropanoic acid]
261 nM and 120 nM | 55 nM |  | Cc1cc(-c2c(OCCc3cccc(C(C)(C)O)n3)nc(N)nc2-c2ccc(F)cc2)cc(C(F)F)n1 [Example 349, 2-(6-(2-((2-amino-5-(2-(difluoromethyl)-6-methylpyridin-4-yl)-6-(4-fluorophenyl)pyrimidin-4-yl)oxy)ethyl)pyridin-2-yl)propan-2-ol]
26.1 nM and 5.9 nM and 30 nM | 4 nM |  | Cc1cc(-c2c(OCc3nccs3)nc(N)nc2-c2ccc(F)cc2)cc(C(F)F)n1 [Example 350, 5-(2-(difluoromethyl)-6-methylpyridin-4-yl)-4-(4-fluorophenyl)-6-(thiazol-2-ylmethoxy)pyrimidin-2-amine]
10.2 nM and 11 nM and 13 nM | 5.7 nM |  | Cc1cc(-c2c(OCc3nc4ccccc4n3C(F)F)nc(N)nc2-c2ccc(F)cc2)cc(C(F)F)n1 [Example 355, 4-((1-(difluoromethyl)-1H-benzo[d]imidazol-2-yl)methoxy)-5-(2-(difluoromethyl)-6-methylpyridin-4-yl)-6-(4-fluorophenyl)pyrimidin-2-amine]
240 nM and 248 nM and 387 nM and 191 nM | 421 nM |  | Cc1cc(-c2c(OCCN(C)c3nccc(C(C)(C)C(=O)O)n3)nc(N)nc2-c2ccc(F)cc2)cc(C(F)F)n1 [Example 373, 2-(2-((2-((2-amino-5-(2-(difluoromethyl)-6-methylpyridin-4-yl)-6-(4-fluorophenyl)pyrimidin-4-yl)oxy)ethyl)(methyl)amino)pyrimidin-4-yl)-2-methylpropanoic acid]
230 nM and 119 nM and 72 nM | 13.1 nM | 10.7 nM | CNc1cccc(COc2nc(N)nc(-c3ccc(F)cc3)c2-c2cc(C)nc(C(F)F)c2)n1 [Example 379, 5-(2-(difluoromethyl)-6-methylpyridin-4-yl)-4-(4-fluorophenyl)-6-((6-(methylamino)pyridin-2-yl)methoxy)pyrimidin-2-amine]
16 nM and 3.2 nM | 36 nM |  | Cc1cc(-c2c(OCc3nccc4ccccc34)nc(N)nc2-c2ccc(F)cc2)cc(C(F)F)n1 [Example 381, 5-(2-(difluoromethyl)-6-methylpyridin-4-yl)-4-(4-fluorophenyl)-6-(isoquinolin-1-ylmethoxy)pyrimidin-2-amine]
2330 nM and 1020 nM | 1460 nM |  | Cc1cc(-c2c(OCc3cccc(C(C)(C)C(=O)O)n3)nc(N)nc2-c2ccc(F)cc2)cc(C(F)(F)F)n1 [Example 385, 2-(6-(((2-amino-6-(4-fluorophenyl)-5-(2-methyl-6-(trifluoromethyl)pyridin-4-yl)pyrimidin-4-yl)oxy)methyl)pyridin-2-yl)-2-methylpropanoic acid]
231 nM and 114 nM and 100 nM | 60 nM |  | CNC(C)(C)c1cccc(COc2nc(N)nc(-c3ccc(F)cc3)c2-c2cc(C)nc(C(F)F)c2)n1 [Example 389, 5-(2-(difluoromethyl)-6-methylpyridin-4-yl)-4-(4-fluorophenyl)-6-((6-(2-(methylamino)propan-2-yl)pyridin-2-yl)methoxy)pyrimidin-2-amine]
1130 nM and 979 nM | 602 nM |  | Cc1cc(-c2c(OCc3cccc(C4(C(=O)O)CC4)n3)nc(N)nc2-c2ccc(F)cc2)cc(C(F)F)n1 [Example 391, 1-(6-(((2-amino-5-(2-(difluoromethyl)-6-methylpyridin-4-yl)-6-(4-fluorophenyl)pyrimidin-4-yl)oxy)methyl)pyridin-2-yl)cyclopropane-1-carboxylic acid]
186 nM and 139 nM and 180 nM and 209 nM | 353 nM |  | Cc1cc(-c2c(OCc3cccc(C4(C(=O)O)CCC4)n3)nc(N)nc2-c2ccc(F)cc2)cc(C(F)F)n1 [Example 392, 1-(6-(((2-amino-5-(2-(difluoromethyl)-6-methylpyridin-4-yl)-6-(4-fluorophenyl)pyrimidin-4-yl)oxy)methyl)pyridin-2-yl)cyclobutane-1-carboxylic acid]
